These results are taken from patent US11952582B2, “Herbicide-resistance gene and application thereof in plant breeding” (priority 2017, dated 2024).

In one assay the target is PaHPPD-SDM (Pseudomonas aeruginosa, UniProt Q9I576, A156V/E349K/R282S). Conditions: higher doses in the range 0-60 of herbicide.
For assay [1], the system named is Arabidopsis WT (Col0), OE At, OE Pa, OE M3 lines. The experiment in a line: Arabidopsis seed germination test on herbicide-containing 1/2 MS medium. Conditions: 2 weeks. It is filed as in vivo, Arabidopsis thaliana. On the procedure:
In order to evaluate the resistance of different HPPD overexpression lines to herbicides, Arabidopsis seed germination tests were performed on media containing different concentrations of herbicides. T3 generation Arabidopsis seeds and Co10 (WT) seeds were performed steam surface sterilization (concentrated HCl: NaClO=1:5, v/v) for 3 h. Seeds of OE At (OE At #1, OE At #2), OE Pa (OE Pa #1, OE Pa #2), OE M3 (OE M3 #1, OE M3 #2) and Co10 (WT) were dibbled together in ^1/2 MS medium (0.5 x MS salt, 1% sucrose and 0.8% agar) in a 24-well plate, and the medium contained different concentrations (0, 31.25, 62.5, 125, 500 and 2000 nM) of mesotrione (Sigma Aldrich, USA) and sulcotrione (Sigma Aldrich, USA). Then, the plate dibbled seeds was placed in the dark at 4° C. for 3 d, and then transferred to a growth chamber at 22° C. (16 h light/8 h dark) for 2 weeks. Three biological replicates were performed per treatment per species. After 2 weeks, the test results were photographed.

Chain of PaHPPD-SDM (Q9I576 whole entry A156V/R282S/E349K): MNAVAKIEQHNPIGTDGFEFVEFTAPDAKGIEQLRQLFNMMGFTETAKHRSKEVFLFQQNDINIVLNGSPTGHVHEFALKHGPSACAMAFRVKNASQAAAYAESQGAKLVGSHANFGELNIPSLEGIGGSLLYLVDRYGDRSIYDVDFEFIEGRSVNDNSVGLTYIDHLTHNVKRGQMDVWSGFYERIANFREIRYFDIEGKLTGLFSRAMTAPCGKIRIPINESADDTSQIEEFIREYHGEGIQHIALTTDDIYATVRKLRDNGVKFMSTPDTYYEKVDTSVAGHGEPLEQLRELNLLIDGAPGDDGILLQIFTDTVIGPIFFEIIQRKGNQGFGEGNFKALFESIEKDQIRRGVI
Description for PaHPPD-SDM: Specifically, the presence of tyrosine aminotransferase in E. coli DH5a can catalyze the production of p-hydroxyphenylpyruvate (4-HPP) from tyrosine, which is used as a substrate for HPPD to produce homogentisic acid (HGA). After further oxidation and polymerization, a brown substance is produced. The addition of HPPD inhibitors will inhibit this reaction, thereby reducing the production of pigment. Therefore, the gradation of pigment can be used as an inhibition index of HPPD activity. […] Through heterologous expression of HPPD mutant genes from different species in E. coli DH5α, the resistance characteristics of E. coli DH5α-mutated gene to triketone herbicides were analyzed by detecting the absorption value of pigment at 405 nm (FIGS. 2-6, 8 and 9).
The PaHPPD mutants obtained by random mutation was cloned into E. coli cells together with wild-type PaHPPD and AtHPPD for comparation and screening.
The bacteria solution shaking cultured overnight at 37° C. was centrifuged, and 200 μL of supernatant was transferred to a sterile 96-well plate (microplate with high throughput characteristics) using a 200 μL pipette on an ultra-clean workbench. The pigment content was measured with a microtiter plate reader at a wavelength of 405 nm (OD405 nm), and the HPPD activity was evaluated according to the size of the OD value.
Then the obtained PaHPPD-SDM mutant was compared with its parental mutants (PaHPPD-M3, PaHPPD-DS18, and PaHPPD-DS73) to understand their ability of brown pigmentation in the presence of triketone herbicides at different doses (0-60 μM). The calculation formula of HPPD activity (%) is as follows: HPPD activity(%)=(Am/Ac)×100
Wherein Am refers to the average value of the absorbance at a specific herbicide dose, and Ac refers to the average value of the absorbance without the herbicide.

Regarding `CS(=O)(=O)c1ccc(C(=O)C2C(=O)CCCC2=O)c(Cl)c1` [sulcotrione], the “resistance by HPPD activity (%) compared with WT, PaHPPD-M3, PaHPPD-DS18 and PaHPPD-DS73” value on PaHPPD-SDM was “improved the resistance”. In assay [1] (OE At (two lines) and WT), the “concentration giving albino death / severely inhibited growth” value came to 31.25 nM. Moreover, in assay [1] (OE Pa (two lines), T3 seeds), the “concentration at which seedlings grow normally” value worked out at 62.5 nM.
As to `CS(=O)(=O)c1ccc(C(=O)C2C(=O)CCCC2=O)c(Cl)c1COCC(F)(F)F` [tembotrion], the “resistance by HPPD activity (%) compared with WT, PaHPPD-M3, PaHPPD-DS18 and PaHPPD-DS73” value at PaHPPD-SDM was “improved the resistance”.
